Experimental data: patent US20220030850A1, “CRYOPRESERVATIVE COMPOSITIONS AND METHODS” (REGENTS OF THE UNIVERSITY OF MINNESOTA, priority 2015, published 2022)

Legend:
Jurkat cells [1] = assay: Raman microscopy cell penetration study of cryoprotectants; assay type: cell-based; conditions: for Penetration: Raman microscopy, at room temperature and at freezing temperatures; for location of cryoprotectant in Raman contrast image: Jurkat cells frozen in either glycerol or trehalose, FIG. 12
Protocol: Raman microscopy data provides an indication of the location of action of each cryopreservative. The images in FIG. 12 show Jurkat cells frozen in either glycerol (penetrating) or trehalose (non-penetrating).
These experiments were performed for most of the components described in the sections above both at room temperature and at freezing temperatures to assess whether penetration was temperature dependent.
Confocal Raman Microspectroscopy (CRM) measurements are conducted using Witec Confocal Raman Microscope System Alpha 300R (WITec, Wissenschaftliche Instrumente und Technologie GmbH, Ulm, Germany) with UHTS300 spectrometer and DV401 CCD detector. A wavelength of 532 nm Nd:YAG laser and 10 mW of power is used as excitation source. The laser is transferred to the microscopy in a singer fiber. A 100× air objective (NA 0.90; Nikon Instruments, Melville, N.Y.) is used for focusing the 532 nm excitation laser to the sample. Data collection and analysis are performed by Windows-based WitecControl_1.38 software.

lysozyme = lysozyme (Gallus gallus, UniProt P00698); assay: Differential scanning calorimetry, denaturation temperature of lysozyme in osmolyte solution; assay type: physicochemical; conditions: 1 mg/ml lysozyme in 20 mM HEPES buffer; single osmolytes 600 mM; heated at 1° C./min; pH 7.3
lysozyme, sequence (P00698 19-147): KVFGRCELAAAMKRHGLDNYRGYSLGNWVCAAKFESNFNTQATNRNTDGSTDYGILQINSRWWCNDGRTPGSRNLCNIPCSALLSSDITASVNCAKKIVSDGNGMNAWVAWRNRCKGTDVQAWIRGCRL
Protocol: Lysozyme powder was dissolved into each solution reaching final concentration of 100 mg/ml and then refrigerated. Lysozyme in DPBS solution was used as control. For DSC measurements, experiment solution was made by dissolving osmolyte into 20 mM HEPES buffer and the concentration of osmolyte in each solution remained same as in DPBS solution. Lysozyme powder was dissolved into each solution reaching final concentration of 1 mg/ml and kept refrigerated. Lysozyme in HEPES buffer was used as control. The pH of solutions was 7.3 measured by Beckman 350 meter. Differential scanning calorimetry was performed on a differential scanning calorimeter (Q1000, TA Instruments, New Castle, Del.). Osmolyte solutions containing lysozyme were heated in order to determine the denaturation temperature of lysozyme. Experimental solutions were heated from room temperature to 90° C. at 1° C./min. Specific heat, Cp, was calculated from the heat flow data assuming Cp as a function of temperature were analyzed using OriginPro software (OriginLab Corp., Northampton, Mass.) to subtract curve baseline. The midpoint temperature, Tm, was obtained as the temperature corresponding to the maximum specific heat value from the baseline and the denaturation temperature was assumed to be Tm^32.

MSCs = assay: High throughput factorial screening with Linear Mixed Effects statistical analysis of recovery; assay type: cell-based, human; conditions: for correlation with recovery: statistical analysis
Protocol: (§1) In another evaluation, cells were combined with factorial combinations of the components listed in Table 5, using one component from each category. Plates including cells and solutions were frozen at cooling rates of 1′C/min, 3′C/min, 5′C/min, or 10′C/min.
(§2) Recovery was calculated by dividing the number of live cells post thaw—calculated using a control curve correlating calcein-acetoxymethyl (AM) fluorescence to cell count—by the number of live cells seeded pre-freeze (AO/PI counts taken prior to freezing). Recovery was normalized by dividing by the DMSO recovery on each plate, then multiplying by a standard DMSO recovery for each cooling rate. This normalized recovery was used to compare samples between different plates and different cooling rates.
(§3) Statistical analysis of the data was performed using a Linear Effects Model. The model associated with best fit was determined using Bayesian Information Criteria. […] The ten best combinations for Jurkats are summarized in Table 6 below, while the eight best combinations for MSCs are summarized in Table 7.
To assess the importance of the four explanatory variables of interest (Sugar, Rate, Additive and Alcohol), without neglecting the variation between each batch and between each plate within the batches, we sought to find the best Linear Mixed Effects (LME) model. With yi the i'th outcome of the response, Xi the corresponding values of the covariates, the LME model is defined as
To select the most fitting model, we performed backward elimination based on the Bayesian Information Criterion (BIC) starting with a model that includes all variables and second order interactions. Furthermore, we included two random variables, one to catch the effect of the batch, and one to catch the effect of each plate within the batch—i.e., the full model is: […]

Jurkat cells [2] = assay: as above; assay type: cell-based; conditions: for correlation with recovery: statistical analysis, data not shown
Protocol: as §1, §2, §3
High throughput factorial screening experiments were performed on a Biomek Beckman FX 96 liquid handling robot. Briefly, 12.5 μl of an array of additives were transferred to nine 96-well plates containing 12.5 μl of different sugar alcohols. Cells (25 μl) diluted in either a sugar (in a solution of NORMOSOL-R; Hospira, Inc., Lake Forest, L) or a NORMOSOL-R blank solution were transferred to these nine plates to give a final volume of 50 μl in each well. Cells suspended in […] in media were also included as a row of each plate to serve as normalization wells for plate-to-plate comparison.
When all plate volume transfers were complete, silicone plate covers were used to seal each plate, and plates were transferred to a controlled rate freezer (Kryo 10 Series III, Planer PLC, Middlesex, United Kingdom) and frozen at cooling rates ranging from 1° C./min to 10° C./min. The concentrations of components present in solution are listed in Table 11, and were selected based on values described in literature or solubility limits. Component concentrations were 0 if not listed in a solution.
Plate samples were also assessed for viability using fluorescence. Briefly, a solution of calcein-AM/propidium iodide was prepared and a volume of 50 μl was added to each sample well of experimental 96-well plates, producing a 1:1 dilution. Plates were protected from light and placed in an incubator for 30 minutes to allow for calcein-AM digestion. A fluorescent plate reader (Synergy HT, BioTek Instruments, Inc., Winooski, Vt.) was used to determine the fluorescence in each well, which was correlated to live and dead cell counts using a control curve.
Viability was calculated for all samples by dividing the number of live cells by the number of total cells. Recovery was calculated directly by dividing the number of live cells post thaw by the number of live cells pre-freeze. Recovery for 96-well plate samples was further normalized; each experimental sample recovery was divided by the DMSO recovery on the same plate, and then multiplied by the standard DMSO recovery for the cooling rate of each experiment.
To assess the importance of the four explanatory variables of interest (Sugar, Rate, Additive and Alcohol), without neglecting the variation between each batch and between each plate within the batches, we sought to find the best Linear Mixed Effects (LME) model. […]

Jurkat cells [3] = assay: 96-well plate freezing, post-thaw scaled raw recovery (calcein-AM/PI); assay type: cell-based; conditions: 150, 300, 600 mM total sugar; FIG. 8
Protocol: The first phase of this study involved using the DE algorithm to develop a three-component cryopreservation solution used at a single cooling rate (1° C./min). Three components (trehalose, glycerol, and ectoine (TGE)) were selected as components of the exemplary freezing medium used for preservation of Jurkat cells, a hematopoietic model cell type, based on pre-screening of multiple non-DMSO components. For this single cooling rate study, the DE algorithm was programmed to output 18 vector solutions per generation with a weight=0.85 and a crossover=1. Jurkat cells cryopreserved in 10% DMSO at a cooling rate of 1° C./min were used as a control.
Cooling rate influences cell survival, and the preferred cooling rate for a given application can depend, at least in part, on the composition of the freezing medium and the cell type being frozen. […] To assess both cooling rate and the composition of the solution, the DE algorithm was programmed to output 27 vector solutions per generation with weight=0.85 and a crossover=1. Solutions were separated into categories based on their DE algorithm defined cooling rate, and were frozen in batches at a cooling rate of […], 0.5° C./min, 1° C./min, 3° C./min, 5° C./min, or 10° C./min. Results were normalized and scaled raw recovery is reported, allowing results from all cooling rates and all generations to be compared directly. […]
After 96 well plates were thawed, calcein-acetoxymethyl (AM)/propidium iodide was added to each well and the wells were covered from light and placed in a 37° C. incubator for 30 minutes to allow the live cells to cleave calcein-AM. The plates were then analyzed for fluorescence on a plate reader. Raw fluorescence values were used to calculate the number of live and dead cells present in each well by correlating to a control curve of unfrozen cells. The live cell recovery was calculated by dividing the number of live cells present in thawed samples (calcein-AM plate reader fluorescence) by the number of live cells seeded pre-freeze (AO/PI counts). […]

[4] = statistical analysis of sugar and cooling rate

Penetration (Jurkat cells [1]) | Compound | correlation with recovery (MSCs) | further results
Yes | OC[C@@H](O)[C@@H](O)[C@H](O)[C@H](O)CO [Mannitol] | – | –
Yes | O=C(O)[C@@H]1CCCN1 [Proline] | negatively correlated | correlation with recovery (Jurkat cells [2]): negatively correlated
Semi* | OC[C@H]1O[C@H](O[C@H]2O[C@H](CO)[C@@H](O)[C@H](O)[C@H]2O)[C@H](O)[C@@H](O)[C@@H]1O [Trehalose] | – | recovery of Jurkat cells, sugar synergy study (Jurkat cells [3]): outperformed monosaccharides; location of cryoprotectant in Raman contrast image (Jurkat cells [1]): excluded from the cell; cooling rate at which cells performed better with the sugar (Jurkat cells [2]; [4]): 5° C./min; cooling rate at which cells performed better with the sugar (MSCs; [4]): 10° C./min
Yes | OCC(O)CO [Glycerol] | positively correlated | location of cryoprotectant in Raman contrast image (Jurkat cells [1]): present both inside the cell and in the super cooled liquid surrounding the cell
Yes | NCCS(=O)(=O)O [Taurine] | – | –
Yes | O[C@H]1[C@H](O)[C@@H](O)[C@H](O)[C@@H](O)[C@H]1O [Inositol] | – | –
Yes | CC(C)[C@H](N)C(=O)O [Valine] | negatively correlated | –
– | OC[C@@H](O)[C@@H](O)CO [erythritol] | negatively correlated | correlation with recovery (Jurkat cells [2]): negatively correlated
Yes | OC[C@@H](O)[C@H](O)[C@@H](O)CO [Xylitol] | – | –
– | OC[C@@H](O)[C@@H](O)[C@@H](O)CO [ribitol] | negatively correlated | correlation with recovery (Jurkat cells [2]): negatively correlated
Yes | C[C@H](N)C(=O)O [Alanine] | – | –
Yes | O=C(CO)[C@@H](O)[C@H](O)[C@H](O)CO [Fructose] | – | –
Yes | CC1=NCC[C@@H](C(=O)O)N1 [Ectoine] | – | Denaturation temperature Tm of lysozyme (lysozyme): 79.6 °C

Compound | Penetration (Jurkat cells [1]) | correlation with recovery (MSCs) | further results
OC[C@@H](O)[C@@H](O)[C@H](O)[C@@H](O)CO [Sorbitol] | Yes | positively correlated | Denaturation temperature Tm of lysozyme (lysozyme): 83.1 °C
OCCO [Ethylene glycol] | Yes | – | –
